The values that follow come from PubChem BioAssay (NCI).

Among the test systems are 786-0 renal; CCRF-CEM leukemia; COLO 205 colon; HOP-92 NSCLC; K-562 leukemia; MDA-N; OVCAR-3 ovarian; RXF 393 renal; SK-MEL-2 melanoma; SNB-75 CNS; UACC-257 melanoma.
Common to all, as to experiment: NCI tumour cell line growth inhibition, 48 h

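48-hour exposure; five concentrations; linearly interpolated endpoints. TGI denotes the concentration required for complete inhibition of growth.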 Some results are limits rather than exact numbers.

On to `C[N+](C)([O-])CCC=C1c2ccccc2CCc2ccccc21`, for which the TGI was found to be 19.2 µM with 786-0 renal; 40.7 µM in the experiment on CCRF-CEM leukemia; 43.6 µM in the experiment on COLO 205 colon; 94.4 µM with HOP-92 NSCLC; 52 µM with K-562 leukemia; 65.3 µM in the experiment with MDA-N. In addition, the TGI with OVCAR-3 ovarian was 58.8 µM; in the experiment on RXF 393 renal it was 39.8 µM; with SK-MEL-2 melanoma, 36.8 µM; in the experiment with SNB-75 CNS, 75.4 µM; in the experiment with UACC-257 melanoma it was > 100 µM.
Turning to `COc1ccc(C2CC(=O)CC(c3ccc(OC)cc3)C23C(=O)NC(=O)NC3=O)cc1` (configuration not stated), the TGI in the experiment on 786-0 renal was > 100 µM; with CCRF-CEM leukemia, > 100 µM; in the experiment with COLO 205 colon, 89 µM; with HOP-92 NSCLC, 78.5 µM; in the experiment on K-562 leukemia, > 100 µM; in the experiment with MDA-N it was 86.4 µM. Besides, the TGI is 44.4 µM in the experiment with OVCAR-3 ovarian; > 100 µM in the experiment with RXF 393 renal; 46.7 µM in the experiment on SK-MEL-2 melanoma; 67.1 µM in the experiment with SNB-75 CNS; > 100 µM in the experiment with UACC-257 melanoma.
Regarding `Cc1ccc(S(=O)(=O)N/N=C/C(=C/c2ccc(Cl)cc2)CC(/C=N/NS(=O)(=O)c2ccc(C)cc2)=C\c2ccc(Cl)cc2)cc1`, the TGI in the experiment on 786-0 renal stood at 4.38 µM; with CCRF-CEM leukemia it was 8.8 µM; in the experiment on COLO 205 colon, 16.9 µM; with HOP-92 NSCLC, 12.4 µM; in the experiment with K-562 leukemia it was 8.19 µM; with MDA-N, 26.7 µM. The TGI in the experiment on OVCAR-3 ovarian amounted to 12.2 µM; with RXF 393 renal, 7.38 µM; with SK-MEL-2 melanoma, 24.9 µM; in the experiment with SNB-75 CNS, 60.1 µM; with UACC-257 melanoma it was 63.6 µM.
Take `C=C1C[C@@H]2O[C@H]3[C@H]4[C@@H](C[C@@H](C)[C@@H](OC(C)=O)[C@H]42)[C@@H](C)CO[C@@]3(C)[C@H](OC(C)=O)C[C@H]1O`: the TGI was > 100 µM in the experiment on 786-0 renal; 49.5 µM in the experiment with CCRF-CEM leukemia; > 100 µM with COLO 205 colon; > 100 µM in the experiment with HOP-92 NSCLC; 63.7 µM in the experiment on K-562 leukemia; > 100 µM with MDA-N. The TGI in the experiment on OVCAR-3 ovarian, with RXF 393 renal, in the experiment with SK-MEL-2 melanoma, with SNB-75 CNS and in the experiment with UACC-257 melanoma was > 100 µM each time.
Regarding `O=C(O)c1nc(-c2ccccc2)ncc1-c1nnnn1-c1ccccc1`, the TGI in the experiment with 786-0 renal, with CCRF-CEM leukemia, in the experiment with COLO 205 colon, in the experiment with HOP-92 NSCLC, with K-562 leukemia and with MDA-N was > 100 µM each time. Further, the TGI with OVCAR-3 ovarian, in the experiment with RXF 393 renal, with SK-MEL-2 melanoma, in the experiment with SNB-75 CNS and in the experiment on UACC-257 melanoma was > 100 µM each time.
Regarding `O=[N+]([O-])c1ccc(Cl)c(C=NC23CC4CC(CC(C4)C2)C3)c1`, the TGI with 786-0 renal, in the experiment on CCRF-CEM leukemia, in the experiment with COLO 205 colon, in the experiment with HOP-92 NSCLC, with K-562 leukemia and in the experiment on MDA-N was > 10 µM in each case. Further, the TGI with OVCAR-3 ovarian, in the experiment with RXF 393 renal, in the experiment on SK-MEL-2 melanoma, with SNB-75 CNS and with UACC-257 melanoma was > 10 µM throughout.
For `CCN(CC)c1c(N(CC)CC)c(=O)c1=O`, the TGI is 16.2 µM in the experiment on 786-0 renal; 18.9 µM in the experiment with CCRF-CEM leukemia; 8.24 µM in the experiment on COLO 205 colon; 11.4 µM with HOP-92 NSCLC; > 100 µM with K-562 leukemia; 32.1 µM with MDA-N. In addition, the TGI in the experiment with OVCAR-3 ovarian is 25.1 µM; in the experiment on RXF 393 renal, 25.2 µM; with SK-MEL-2 melanoma, 66.9 µM; in the experiment on SNB-75 CNS, 62.6 µM; in the experiment with UACC-257 melanoma, 20.5 µM.
Consider `Cc1cc(C)c(S(=O)(=O)N2CCCN(S(=O)(=O)c3c(C)cc(C)cc3C)OCCCON(S(=O)(=O)c3c(C)cc(C)cc3C)CCCN(S(=O)(=O)c3c(C)cc(C)cc3C)OCCCO2)c(C)c1`, for which the TGI in the experiment on 786-0 renal, in the experiment with CCRF-CEM leukemia, in the experiment with COLO 205 colon, in the experiment with HOP-92 NSCLC, with K-562 leukemia and with MDA-N was > 100 µM each time. Besides, the TGI in the experiment with OVCAR-3 ovarian, in the experiment on RXF 393 renal, in the experiment on SK-MEL-2 melanoma, in the experiment on SNB-75 CNS and in the experiment with UACC-257 melanoma was > 100 µM in each case.
For the molecule `O=[N+]([O-])c1ccc(/C=N/n2c(CO)nc3ccccc32)o1`, the TGI was 17.9 µM with 786-0 renal; 36.8 µM in the experiment with CCRF-CEM leukemia; 10.6 µM in the experiment on COLO 205 colon; 14.8 µM in the experiment on HOP-92 NSCLC; 62.7 µM with K-562 leukemia; 13.3 µM in the experiment on MDA-N. In addition, the TGI with OVCAR-3 ovarian was found to be 6.91 µM; in the experiment on RXF 393 renal, 18.3 µM; with SK-MEL-2 melanoma it was 24.1 µM; with SNB-75 CNS, 57.1 µM; with UACC-257 melanoma, 6.25 µM.
Take `CCC1(CC)SCc2nc3ccccc3n21`: the TGI is > 100 µM in the experiment on 786-0 renal; > 100 µM with CCRF-CEM leukemia; 40.2 µM in the experiment with COLO 205 colon; 61.2 µM in the experiment with HOP-92 NSCLC; 74.5 µM with K-562 leukemia; > 100 µM in the experiment with MDA-N. In addition, the TGI is > 100 µM with OVCAR-3 ovarian; 94.5 µM with RXF 393 renal; 85.3 µM with SK-MEL-2 melanoma; 51.8 µM in the experiment with SNB-75 CNS; 71.9 µM with UACC-257 melanoma.
Consider `O=S(=O)(c1ccccc1)n1c2cc3cccnc3nc2c2cccnc21`, for which the TGI in the experiment with 786-0 renal is > 100 µM; with CCRF-CEM leukemia it was > 100 µM; in the experiment with COLO 205 colon, > 100 µM; in the experiment on HOP-92 NSCLC, > 100 µM; with K-562 leukemia it was 55.3 µM; with MDA-N, > 100 µM. The TGI was > 100 µM with OVCAR-3 ovarian; 90.9 µM in the experiment with RXF 393 renal; > 100 µM with SK-MEL-2 melanoma; > 100 µM with SNB-75 CNS; > 100 µM in the experiment on UACC-257 melanoma.
As to `COc1ccc(CC2c3cc(Oc4cc(CC5c6cc(OC)c(OC)cc6CCN5C)ccc4O)c(OC)cc3CCN2C)cc1` (configuration not stated), the TGI in the experiment with 786-0 renal stood at 9.33 µM; with CCRF-CEM leukemia, 1.57 µM; in the experiment with COLO 205 colon, 14.7 µM; with HOP-92 NSCLC, 14.6 µM; in the experiment with K-562 leukemia it was 5.28 µM; with MDA-N it was 13.7 µM. Also, the TGI came out at 15.1 µM in the experiment with OVCAR-3 ovarian; 12 µM with RXF 393 renal; 15.6 µM with SK-MEL-2 melanoma; 15.3 µM in the experiment on SNB-75 CNS; 15 µM in the experiment on UACC-257 melanoma.
